Results as given in patent US9861616B2, “Methods for treating respiratory diseases and formulations therefor” (priority 2013, dated 2018).
Where two headings read alike, the source gives them in different places.

Tests used:
[1] = test system: B. cepacia strains from cystic fibrosis patients; assay: Macrobroth dilution MICs, CF strains; format: cell-based; details: 2 B. cepacia strains from cystic fibrosis patients
Protocol: (§1) Two strains each of mucoid P. aeruginosa (both pyocyanin positive) and […] MRSA (only one strain with gold colonies) isolated from patients at a CF clinic were tested. Additionally, 2 B. cepacia strains were acquired, from Hershey Medical Center. All strains were identified by standard methods. Only one strain per patient was tested. MLVA was done on all strains to examine clonality, and confirmed that examination is not taking place on only one or a few clones. Strains will be stored in skim milk at −70° C. until use.
(§2) Original MICs of each strain to CEM-101 and other comparators were tested by CLSI microdilution methodology. Trays were obtained from Trek, Inc., Cleveland, Ohio. Time-kill macrobroth MIC dilution by CLSI was performed for all synergy testing.

[2] = test system: P. aeruginosa strains from cystic fibrosis patients; assay: Macrobroth dilution MICs, CF strains; format: cell-based; details: 2 P. aeruginosa strains from cystic fibrosis patients
Protocol: as §1, §2

MRSA SA 2230, SA 2232 = assay: Time-kill macrobroth MICs; format: cell-based, S. aureus
Protocol: as §2
(§3) Two of the MRSA strains were chosen and tested for synergy, together with the 4 Gram-negative strains mentioned above. Broth macrodilution formed the basis of MICs used in time-kill experiments, as detailed below. The kill kinetics of each drug was tested alone by incubating an initial inoculum of 5×10^5 to 5×10^6 cfu/mL with drug concentrations at the MIC, three dilutions above and three dilutions below the MIC (½, ¼ and ⅛×MIC). Viability counts were performed after 0, 3, 6, 12 and 24 h incubation at 37° C. in a shaking water bath by plating onto trypticase soy-5% sheep blood agar plates.

[3] = test system: B. cepacia BCEP 953, BCEP 954; assay: Time-kill macrobroth MICs; format: cell-based
Protocol: as §2, §3

[4] = test system: P. aeruginosa PSAR 461, PSAR 468; assay: Time-kill macrobroth MICs; format: cell-based
Protocol: as §2, §3

[5] = test system: MRSA strains from CF patients; assay: Microdilution MICs against 40 MRSA strains from CF patients; format: cell-based, S. aureus
Protocol: as §1, §2

[6] = 40 MRSA strains from CF patients
[7] = Staphylococcus aureus, 40 MRSA strains from CF patients, read-out: MIC50
[8] = Staphylococcus aureus, 40 MRSA strains from CF patients, read-out: MIC90

NCC[C@H](O)C(=O)N[C@@H]1C[C@H](N)[C@@H](O[C@H]2O[C@H](CN)[C@@H](O)[C@H](O)[C@H]2O)[C@H](O)[C@H]1O[C@H]1O[C@H](CO)[C@@H](O)[C@H](N)[C@H]1O [Amikacin]
MIC Range [1]: 256 µg/mL
MIC Range [2]: 2 to 8 µg/mL
Time-kill Macrobroth MIC (MRSA SA 2230, SA 2232; strain SA 2230): 32.0 µg/mL
Time-kill Macrobroth MIC (MRSA SA 2230, SA 2232; strain SA 2232): 64.0 µg/mL
Time-kill Macrobroth MIC ([3]; strain BCEP 953): 512 µg/mL
Time-kill Macrobroth MIC ([3]; strain BCEP 954): 256 µg/mL
Time-kill Macrobroth MIC ([4]; strain PSAR 461): 8.0 µg/mL
Time-kill Macrobroth MIC ([4]; strain PSAR 468): 4.0 µg/mL

CCCCCCCCCC(=O)N[C@@H](Cc1c[nH]c2ccccc12)C(=O)N[C@H](CC(N)=O)C(=O)N[C@@H](CC(=O)O)C(=O)N[C@@H]1C(=O)NCC(=O)N[C@@H](CCCN)C(=O)N[C@@H](CC(=O)O)C(=O)N[C@H](C)C(=O)N[C@@H](CC(=O)O)C(=O)NCC(=O)N[C@H](CO)C(=O)N[C@@H]([C@H](C)CC(=O)O)C(=O)N[C@@H](CC(=O)c2ccccc2N)C(=O)O[C@@H]1C [Daptomycin]
MIC Range [5, 6]: 0.5-1^ μg/mL
MIC50 [5, 7]: 0.5 µg/mL
MIC90 [5, 8]: 1 µg/mL

CC(=O)NC[C@H]1CN(c2ccc(N3CCOCC3)c(F)c2)C(=O)O1 [Linezolid]
MIC Range [5, 6]: 1 to 4 µg/mL
MIC50 [5, 7]: 2 µg/mL
MIC90 [5, 8]: 2 µg/mL

CN(C)c1cc(NC(=O)CNC(C)(C)C)c(O)c2c1C[C@H]1C[C@H]3[C@H](N(C)C)C(O)=C(C(N)=O)C(=O)[C@@]3(O)C(O)=C1C2=O [Tigecycline]
MIC Range [5, 6]: 0.12 to 0.25 µg/mL
MIC50 ([5]; Staphylococcus aureus, MRSA): 0.12 µg/mL
MIC90 ([5]; Staphylococcus aureus, MRSA): 0.25 µg/mL

NC[C@H]1O[C@H](O[C@H]2[C@H](O)[C@@H](O[C@H]3O[C@H](CO)[C@@H](O)[C@H](N)[C@H]3O)[C@H](N)C[C@@H]2N)[C@H](N)C[C@@H]1O [Tobramycin]
MIC Range [1]: 128 µg/mL
MIC Range [2]: 0.25 to 1.0 µg/mL
Time-kill Macrobroth MIC (MRSA SA 2230, SA 2232; strain SA 2230): 4.0 µg/mL
Time-kill Macrobroth MIC (MRSA SA 2230, SA 2232; strain SA 2232): > 512 µg/mL
Time-kill Macrobroth MIC ([3]; strain BCEP 953): 128 µg/mL
Time-kill Macrobroth MIC ([3]; strain BCEP 954): 128 µg/mL
Time-kill Macrobroth MIC ([4]; strain PSAR 461): 2.0 µg/mL
Time-kill Macrobroth MIC ([4]; strain PSAR 468): 1.0 µg/mL

CN[C@H](CC(C)C)C(=O)N[C@H]1C(=O)N[C@@H](CC(N)=O)C(=O)N[C@H]2C(=O)N[C@H]3C(=O)N[C@H](C(=O)N[C@H](C(=O)O)c4cc(O)cc(O)c4-c4cc3ccc4O)[C@H](O)c3ccc(c(Cl)c3)Oc3cc2cc(c3O[C@@H]2O[C@H](CO)[C@@H](O)[C@H](O)[C@H]2O[C@H]2C[C@](C)(N)[C@H](O)[C@H](C)O2)Oc2ccc(cc2Cl)[C@H]1O [Vancomycin]
MIC Range [5, 6]: 0.5-1^ μg/mL
MIC50 ([5]; Staphylococcus aureus, MRSA): 0.5 µg/mL
MIC90 ([5]; Staphylococcus aureus, MRSA): 1 µg/mL

Teicoplanin
MIC50 [5, 6]: 0.5 µg/mL
MIC90 [5, 6]: 1 µg/mL
MIC Range [5, 6]: 0.25 to 1 µg/mL
